Assay results published in patent publication US9738878B2, “HIV-1 integrase derived peptides and compositions” (priority 2008, dated 2017).
No end group written: not given here.

How the values were obtained:
IN [1] = molecular target: T1, IN (Human immunodeficiency virus type 1 group M subtype B, UniProt P12497); assay: ELISA-based binding assay, IN protein; set-up: species or system HIV-1
T1 construct: The histidine-tagged IN expression vector was a generous gift from Dr. A. Engelman; histidine tag; made in house
Description: Each measurement was performed at least in duplicate.
Selection of peptide sequences that interact with the Rev protein, Rev-derived peptides, and the IN itself was made by screening of an N peptide library (NIH AIDS Research and Reference Reagent Program, Division of AIDS, NIAID, NIH: HIV-1 Consensus B Pol (15-mer) peptides—Complete Set from DAIDS, NIAID), using an ELISA-based assay system. […] This observation further confirmed that the sequence of the NS and INrs peptides within the N protein mediate the interaction with the Rev protein. The NS peptide interacted with both Rev 13-23 and Rev 53-67 peptides while Nr-1 and Nr-2 interacted with the Rev 53-67 and Rev 13-23 peptides respectively (FIG. 1D and Table 1). […] This was inferred from experiments showing that biotinylated-BSA-Rev 13-23 or Rev 53-67 conjugates were able to interact with NS or INrs peptides-coated plates (FIGS. 1C and 1D).

HIV-1 [2] = settings: H9 and Sup-T1 cells, peptide 12.5 μM
Description: Cultured lymphocytes (1×10^5) were centrifuged for 5 min at 2000 rpm and after removal of the supernatant, the cells were resuspended in 0.2 to 0.5 ml of RPMI 1640 medium containing virus at a multiplicity of infection (MOI) of 0.01, 0.1 and 5. Following absorption for 2 h at 37° C., the cells were washed to remove unbound virus and then incubated at the same temperature for an additional 1 to 8 days.
Lymphoid cells were incubated with the indicated peptides for 2 h and following infection with wild-type HIV-1 at a MOI of 0.01 (as described above), the cells were incubated for 8 days, or 48 h at a MOI of 1. The amount of p24 protein was estimated in the cell medium every 2 days exactly as described previously.
The amount of viral P24 (A and B) and virus titer (C and D) were determined every 2 days by ELISA and MAGI assay (Kimpton 1992, J Virol 66, 2232-2239), respectively. The concentration of azidothymidine (AZT) used was 2 μM.

Rev-GFP = assay: ELISA-based binding assay, Rev-GFP on peptide-coated plates; set-up: species or system HIV-1; settings: screen of IN peptide library
Description: (§1) Protein-peptide binding was estimated using an ELISA-based binding assay as described previously (Rosenbluh et al., 2006, Anal Biochem 352, 157-168). Briefly, Maxisorp plates (Nunc) were incubated at room temperature for 2 h with 200 μl of 10 μg/ml synthetic peptide in carbonate buffer. After incubation, the solution was removed, the plates were washed three times with PBS, and 200 μl of 10% BSA in PBS (w/v) was added for 2 h at room temperature. […] Following three washes with PBS, the concentration of bound biotinylated molecules was estimated after the addition of streptavidin-horseradish peroxidase (HRP) conjugate (Sigma), as described previously (Melchior et al., 1993, J Cell Biol 123, 1649-1659). The concentration of bound protein molecules was estimated after the addition of anti-GFP mouse antibody (Santa Cruz) which then was interacted with rabbit anti-mouse IgG antibody conjugated to HRP. The enzymatic activity of HRP was estimated by monitoring the product's optical density (OD) at 490 nm using an ELISA plate reader (Tecan Sunrise). Each measurement was performed at least in duplicate.
(§2) Selection of peptide sequences that interact with the Rev protein, Rev-derived peptides, and the IN itself was made by screening of an N peptide library (NIH AIDS Research and Reference Reagent Program, Division of AIDS, NIAID, NIH: HIV-1 Consensus B Pol (15-mer) peptides—Complete Set from DAIDS, NIAID), using an ELISA-based assay system.
(§3) FIG. 1: 1A—Rev-GFP or GFP alone were incubated in ELISA plates coated with either INr-1 (♦, ⋄, respectively), INr-2 (▪, □, respectively) or INS (▴, Δ, respectively) and binding was determined as described above. 1B—The IN protein was first bound to the ELISA plate and then incubated with Rev-GFP to obtain a Rev-IN complex. The complex was then incubated with either one of the INr peptides or the INS peptide at the designated Rev-GFP:peptide ratio. Wells were then washed and the amount of bound Rev-GFP was determined by mouse anti-GFP antibody and secondary rabbit anti-mouse HRP-conjugated antibody. […]

HIV-1 [3] = system: HIV-1
Description: Quantitative titration of HIV-1 was carried out using the MAGI assay, as described by Kimpton and Emerman (J Virol 1992, 66, 2232-2239). […] Two days post-infection (PI), cultured cells were fixed and ƒl-galactosidase was estimated as described above. Blue cells were counted under a light microscope at 200× magnification.
The concentration of azidothymidine (AZT) used was 2 μM.

[4] = Survival of HIV-1 infected and uninfected Hela cells; format: cell-based; settings: human, uninfected HeLa cells, read-out: intact viable uninfected Hela cells
Description: FIG. 7 Percentage of viable infected and uninfected Hela cells normalized every two days to the number of cells in the non treated non infected cells sample. Cells were infected with WT HIV-1 at MOI of 0.01 and the treated cells were added 12.5 μM of INS.

[5] = system: HIV-1 infected lymphocyte cells; assay: Lysis of HIV-1 infected cells after one cycle of infection, MTT; settings: 62.5-150 μM, ΔENV/VSV-G HIV-1 MOI 10, MTT 48 h post infection
HeLa TZM-b1 cells = assay: Cell viability, MTT assay; format: cell-based; settings: up to about 62 μM
HIV-1 DNA integration = assay: Copy numbers of HIV-1 DNA integrated into cellular genome, real-time PCR; format: cell-based; settings: H9 cells, 24 hours post infection, single cycle of infection, Δenv/VSV-G HIV-1
Description: During the second-round PCR, the first-round PCR product could be specifically amplified by using the tag-specific primer (tag-F 5′-[…]-3′) and the LTR primer (LTR-R 5′-[…]-3′) designed by PrimerExpress (Applied Biosystems) using default settings. The second-round PCR was performed on 1/25th of the first-round PCR product in a mixture containing 300 nM of each primer, 12.5 μl of 2λ SYBR Green master mixture (Applied Biosystems) at a final volume of 25 μl, run on an ABI PRIZM 7700 (Applied Biosystems).
For generation a standard calibration curve, the SVC21 plasmid containing the full-length HIV-1HXB2 viral DNA was used as a template. In the first-round PCR, the LTR-TAG-F and LTR-R primers were used and the second-round PCR was performed using the tag-F and LTR-R primers. The standard linear curve was in the range of 5 ng to 0.25 fg (R=0.99). DNA samples were assayed with quadruplets of each sample. The cell equivalents in the sample DNA were calculated based on amplification of the 18S gene by real-time PCR as described in (Field et al, 2002, Biochem J 368, 855-864).
. (B) H9 T-lymphoid cells were incubated with the indicated peptides (12.5 μM) or AZT (2 μM) and following HIV-1 infection, the integrated viral DNA/cell was assessed by real-time PCR following a single cycle of infection at a MOI of 5 of Δenv/VSV-G HIV-1.

IN [6] = molecular target: T1, IN; assay: IN enzymatic activity assay; format: biochemical, HIV-1; settings: for integrase activity inhibited by Rev-derived peptide, restoration: molar ratio 1:10 (Rev peptide:INr peptide)
Description: The IN enzymatic activity assay was performed using a previously described assay system (Craigie et al., 1991, Nucleic Acids Res 19, 2729-2734, Hwang et al., 2000, Nucleic Acids Res 28, 4884-4892). Briefly, the oligonucleotide substrate consisted of one oligo (5′-[…]-3′) labeled with biotin at the 3′ end and the other oligo (5′-[…]-3′) labeled with digoxigenin at the 5′ end. When inhibition was studied, the IN was preincubated with the peptide or protein for 15 min prior to addition of the DNA substrate.
FIG. 2 (A) Rev-GFP (dark green) or GFP (turquoise) were incubated at different molar ratios with IN (390 nM) and the IN enzymatic activity was determined as described above. (B) Rev-GFP was preincubated with the indicated INS peptide at a molar ratio of 5:1 (peptide:Rev-GFP) and the resultant mixture was added to a solution containing IN to give a molar ratio of 1:200 and 1:400 (IN:Rev-GFP). Following an incubation period, IN activity was estimated as described above. (C) Same as (B) but with the INrs peptides.
FIG. 3 A-C IN (390 nM) was incubated with 50 μM of the Rev-derived peptides (1:300 IN:Rev-derived peptide, Rev13-23 or Rev 53-67) and then the INS peptide was added at different molar ratios ranging from 10:1 to 1:10 (Rev peptide:INS peptide) (A) IN (390 nM) was incubated with 50 μM of the Rev-derived peptides (1:300 IN:Rev-derived peptide), (Rev13-23 (B) and Rev 53-67 (C)) and then the INr peptides were added at different molar ratios ranging from 10:1 to 1:10 (Rev peptide:INr peptide).

Rev-IN complex = settings: peptide added to preformed complex
Rev 13-23 = molecular target: T2, Rev 13-23 (Human immunodeficiency virus type 1 group M subtype B, UniProt P04618); assay: ELISA-based binding assay, biotinylated-BSA-Rev 13-23 conjugate on peptide-coated plates; set-up: species or system HIV-1
T2 construct: biotinylated-BSA-Rev 13-23 or Rev 53-67 conjugates
Description: as §1, §2, §3

HeLa cells = assay: Cell-penetration experiments, fluorescein-labeled peptides, confocal microscopy; format: cell-based; settings: fluorescein-labeled peptide 10 μM
Description: Fluorescein-labeled peptides at a final concentration of 10 μM in PBS were incubated with HeLa cells for 1 h at 37° C.
The cells were then washed three times with PBS and visualized by a confocal microscope. […] (C) same as (B) but in H9 lymphocytes

Rev 53-67 = molecular target: T3, Rev 53-67 (Human immunodeficiency virus type 1 group M subtype B, UniProt P04618); assay: ELISA-based binding assay, biotinylated-BSA-Rev 53-67 conjugate on peptide-coated plates; set-up: species or system HIV-1
T3 construct: biotinylated-BSA-Rev 13-23 or Rev 53-67 conjugates
Description: as §1, §2, §3

| Sequence | interaction with the IN protein itself (IN [1]) | appearance of viral p24 antigen (HIV-1 [2]) | interaction with Rev-GFP (Rev-GFP) | appearance of infectious viral particles (HIV-1 [3]) | viability at 12.5 µM [4] [%] | cell death after one cycle of infection [5] | cell toxicity (HeLa TZM-b1 cells) | stimulation of integration per cell (HIV-1 DNA integration) | enzymatic activity of HIV-1 IN (IN [6]; in the absence of the inhibitory Rev peptide) | integrase activity inhibited by Rev-derived peptides, restoration (IN [6]; molar ratio Rev:INS peptide 1:5) | integrase activity in presence of Rev-derived peptides (IN [6]; molar ratio Rev:INS peptide 1:10) | abrogation of Rev-GFP inhibition of IN activity (IN [6]; peptide:Rev-GFP 5:1, IN:Rev-GFP 1:200 and 1:400) | release of bound Rev-GFP from the complex formed between IN and Rev-GFP (Rev-IN complex) | interaction with Rev 13-23 peptide (Rev 13-23) | cell penetration (HeLa cells) | interaction with Rev 53-67 peptide (Rev 53-67) | abrogation of inhibitory effect of Rev 13-23 peptide on IN activity (IN [6]; IN 390 nM, Rev peptide 50 μM) | integrase activity inhibited by Rev-derived peptide, restoration (IN [6]) | abrogation of inhibitory effect of Rev 53-67 peptide on IN activity (IN [6]; IN 390 nM, Rev peptide 50 μM) |
| --- | --- | --- | --- | --- | --- | --- | --- | --- | --- | --- | --- | --- | --- | --- | --- | --- | --- | --- | --- |
| WTAVQMAVFIHNFKRK [INS] | interact | Stimulation | specifically interacting | stimulation | ~100 | induce killing of only infected lymphocyte cells | non-toxic | 2- to 5 fold | significantly stimulated | fully restored | stimulate the IN activity | abrogated the inhibitory activities of Rev-GFP | induces the release of the bound Rev-GFP | interacted | cell-permeable | interacted | – | – | – |
| WGSNFTSTTVKA [INr-2] | – | – | specifically interacting | – | – | – | – | – | – | – | – | – | – | interacted | – | not with Rev 53-67 | abrogated the inhibitory effect | fully restored | – |
| WTHLEGKIILVAVHVA [INr-1] | – | – | specifically interacting | – | – | – | – | – | – | – | – | – | – | not with the Rev 13-23 peptide | – | interacted | – | fully restored | abrogated the inhibitory effect |
